Data: article PMC8084100, “Bypassing the requirement for aminoacyl-tRNA by a cyclodipeptide synthase enzyme” (RSC Chemical Biology, 2021)

Columns and labels:
BtCDPS [1] = molecular target: T1, BtCDPS (Caldibacillus thermoamylovorans, UniProt A0A090KS30); assay: LC-MS of cyclic dipeptide product; assay type: biochemical; settings: 50 mM HEPES pH 7.5, 500 mM NaCl, 5 mM DTT, 1 mM substrate, 20 °C, 24 h
T1 construct: gene yvmC; full length (residues 1-232), codon-optimised synthetic gene, TEV-cleavable His6 tag cut, E. coli BL21(DE3), monomer
T1 sequence (A0A090KS30 1-231): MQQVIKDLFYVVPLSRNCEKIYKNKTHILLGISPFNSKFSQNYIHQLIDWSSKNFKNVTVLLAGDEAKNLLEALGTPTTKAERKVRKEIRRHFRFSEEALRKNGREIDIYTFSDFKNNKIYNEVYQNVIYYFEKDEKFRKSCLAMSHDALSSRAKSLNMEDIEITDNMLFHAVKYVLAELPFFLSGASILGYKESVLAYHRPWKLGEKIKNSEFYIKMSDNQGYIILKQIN

BtCDPS [2] = molecular target: T1, BtCDPS; assay: LC-HRMS of cLL product; HPLC of DBE-OH; intact protein MS of acyl-enzyme; assay type: biochemical; settings: 50 mM HEPES pH 7.5, 500 mM NaCl, 5 mM DTT, 500 uM substrate, room temperature; covalent (leucyl-enzyme intermediate at S33)

Row | Compound | LC-MS of cyclic dipeptide product (BtCDPS [1]) | LC-HRMS of cLL product; HPLC of DBE-OH; intact protein MS of acyl-enzyme (BtCDPS [2])
1 | CC[C@H](C)[C@H](N)C(=O)OCc1cc([N+](=O)[O-])cc([N+](=O)[O-])c1 [Ile-DBE] | Ile-DBE and Met-DBE were also substrates for BtCDPS | –
2 | CC(C)C[C@H](N)C(=O)OCc1cc([N+](=O)[O-])cc([N+](=O)[O-])c1 [Leu-DBE] | – | a cyclic dipeptide (cLL) is generated by CDPS when Leu-DBE was used as a substrate
3 | CSCC[C@H](N)C(=O)OCc1cc([N+](=O)[O-])cc([N+](=O)[O-])c1 [Met-DBE] | Ile-DBE and Met-DBE were also substrates for BtCDPS | –
